System: Fibroblast
Assay: Incucyte cell viability with human fibroblast; also: filed as whole numbers so only -1 and 0 and 1 occur
Format: toxicity, cell-based
Conditions: 10 µM, compound concentration 10 uM
[1] = 0 h, replicate number 1, timepoint 0 hours
[2] = 6 h, replicate number 1, timepoint 6 hours
[3] = 6 h, replicate number 2, timepoint 6 hours
[4] = 12 h, replicate number 1, timepoint 12 hours
[5] = 18 h, replicate number 1, timepoint 18 hours
[6] = 24 h, replicate number 1, timepoint 24 hours
[7] = 0 h, replicate number 2, timepoint 0 hours
[8] = 12 h, replicate number 2, timepoint 12 hours
[9] = 18 h, replicate number 2, timepoint 18 hours
[10] = 24 h, replicate number 2, timepoint 24 hours

SMILES	Growth Rate [1]	Growth Rate [2]	Growth Rate [3]	Growth Rate [4]	Growth Rate [5]	Growth Rate [6]	Growth Rate [7]	Growth Rate [8]	Growth Rate [9]	Growth Rate [10]
Cc1nc(N2CC[C@H](O)C2)ncc1-c1cc(C(F)(F)F)cc2[nH]ncc12	0	1	0	0	0	0	–	–	–	–
CC(C)Oc1ccccc1C(=O)Nc1ccccc1C(=O)Nc1cccc(S(=O)(=O)C(F)(F)F)c1	0	–	–	–	–	1	–	–	–	–
CNC(=O)Nc1ccc(-c2nc(N3CC4CCC(C3)O4)c3cnn(C4CCC5(CC4)OCCO5)c3n2)cc1	1	0	–	0	0	0	0	–	–	–
CC1=C(C(=O)Nc2cc3cn[nH]c3cc2F)C(c2ccc(C(F)(F)F)cc2)CC(=O)N1 (stereo not drawn)	0	–	–	–	–	1	–	–	–	–
CCCSc1nc(N[C@@H]2C[C@H]2c2ccc(F)c(F)c2)c2nnn([C@@H]3C[C@H](OCCO)[C@@H](O)[C@H]3O)c2n1 [TICAGRELOR]	0	0	–	0	0	0	–	–	–	–
COc1ccc(-c2ccc3ncc4c(c3c2)n(-c2ccc(N3CCNCC3)c(C(F)(F)F)c2)c(=O)n4C)cn1.O=C(O)/C=C\C(=O)O [BGT-226]	0	0	–	0	0	0	–	–	–	–
COc1ccccc1CN[C@H]1C2CCN(CC2)[C@H]1C(c1ccccc1)c1ccccc1 [CP-96345]	0	–	0	1	1	1	–	0	0	0
CN1CCN(Cc2ccc(Nc3ncc(Cl)c(Nc4ccccc4S(=O)(=O)N(C)C)n3)cc2)CC1 [DUBERMATINIB]	0	–	–	1	0	0	–	0	–	–
CN1CCN(Cc2cc(NC(=O)c3ccc4c(c3)CN(c3ccccc3)CC4)cc(C(F)(F)F)c2)CC1	–	0	–	0	0	0	1	–	–	–
CC(C)c1noc(N2CCC(COc3ccc(-c4ccc(S(C)(=O)=O)cc4)nc3)CC2)n1 [GSK-1292263]	0	0	–	0	0	0	–	–	–	–
Cc1ccc2c(c1)c1c(n2CCc2ccc(C)nc2)CCN(C)C1 [LATREPIRDINE]	0	1	0	0	0	0	–	–	–	–
CNC(=O)c1ccc(Nc2ncc(C(F)(F)F)c(NCc3nccnc3N(C)S(C)(=O)=O)n2)cc1 [DEFACTINIB]	0	–	1	0	0	0	1	1	–	–
CCc1ccc(OCc2ccccc2C(=O)Nc2ccc3nc(C)cc(N)c3c2)cc1.Cl	0	0	–	0	0	0	–	–	–	–
C[C@]12CC[C@@H]3c4ccc(O)cc4CC[C@H]3[C@@H]1CC[C@@H]2O [ESTRADIOL]	0	0	–	0	0	0	–	–	–	–
Cc1c[nH]c2nccc(Oc3c(F)cc(Nc4cc(Cl)nc(N)n4)cc3F)c12 [BAY-549]	0	–	–	0	0	0	–	1	–	–
Cc1cc(NC(=O)c2cccc(S(F)(F)(F)(F)F)c2)cc(-n2ccn3nc(-c4cccnc4)cc23)c1 [BAY-309]	1	0	–	0	0	0	–	–	–	–
CN(c1ccccc1CNc1nc(Nc2ccc3c(c2)CC(=O)N3)ncc1C(F)(F)F)S(C)(=O)=O	1	–	–	1	0	0	0	–	1	–
C=CC(=O)Nc1cccc(Sc2nc(Nc3ccc(N4CCN(C)CC4)cc3)ncc2Cl)c1	–	0	–	0	0	0	–	–	–	–

SMILES	Growth Rate [1]	Growth Rate [2]	Growth Rate [3]	Growth Rate [4]	Growth Rate [5]	Growth Rate [6]	Growth Rate [7]	Growth Rate [8]	Growth Rate [9]	Growth Rate [10]
C=CC(=O)Nc1cccc(Oc2nc(Nc3ccc(N4CCN(C)CC4)cc3OC)ncc2Cl)c1	–	0	–	0	0	0	–	–	–	–
C=CC(=O)Nc1ccc2[nH]c(=O)n(C3CCN(Cc4ccc(-c5nc6cc[nH]c(=O)c6cc5-c5ccccc5)cc4)CC3)c2c1 [Borussertib]	0	–	0	1	1	1	–	–	0	0
CC(C)NC(=O)N1CC[C@H](NC2=Nc3cc(F)ccc3N(CC(F)F)c3ccc(Cl)cc32)C1	–	0	–	0	0	0	–	–	–	–
CC(C)OC(=O)N1CCC(Oc2ncnc3c2cnn3-c2ccc(S(C)(=O)=O)cc2F)CC1	0	1	0	1	1	0	–	0	0	–
O=c1cc(N2CCOCC2)oc2c(-c3cccc4c3sc3ccccc34)cccc12	–	0	–	0	0	0	0	–	1	1
COc1cc2ncn(-c3cc(OCc4ccccc4C(F)(F)F)c(C(N)=O)s3)c2cc1OC [GW843682X]	0	1	–	0	0	0	–	–	–	–
CC(C)CC(=O)Nc1[nH]nc2c1CN(C(=O)C1CCN(C)CC1)C2(C)C [PHA-793887]	0	0	–	0	0	0	–	–	–	–
COC(=O)C1=C(C)NC(C)=C(C(=O)OCCCN2CCC(c3ccccc3)(c3ccccc3)CC2)[C@H]1c1cccc([N+](=O)[O-])c1 [NIGULDIPINE]	0	0	–	0	0	0	–	–	1	1
O=C(c1cc2c(cc1F)OC(c1ccc(F)cc1)(c1ccc(Cl)cc1Cl)O2)N1CCOCC1 (stereo not drawn)	0	–	–	–	1	1	–	0	0	0
CC(C)(C)NC[C@H](O)COc1nsnc1N1CCOCC1 [TIMOLOL]	0	1	0	1	1	1	1	0	0	0
Cc1cccc(CN2CCN(C(c3ccccc3)c3ccc(Cl)cc3)CC2)c1.Cl.Cl (stereo not drawn)	0	–	–	1	1	0	–	0	0	–
O=c1[nH]c2ccccc2n1C1CCN(Cc2ccc(-c3[nH]c4cc5ncnc5cc4nc3-c3ccccc3)cc2)CC1	–	–	–	1	0	0	0	–	–	–
COc1cc(Nc2nccc(-c3cnn4nc(OC)ccc34)n2)cc(C(F)(F)F)c1	–	0	–	0	0	0	–	–	–	–
CNCc1ccccc1-c1csc([C@@H](C)Nc2nc(C)nc3cc(OC)c(OC)cc23)c1 [BAY-293]	–	0	–	0	0	0	–	–	–	–
Cl.O=C(O)c1cc(-c2ccc(C3CCNCC3)cc2)c2ccc(-c3ccc(C(F)(F)F)cc3)cc2c1	0	–	0	1	1	1	–	0	0	0
CNC(=O)Nc1ccc2c(c1)[C@@]1(CC2)OC(=O)N(CC(=O)N(Cc2ccc(F)cc2)[C@@H](C)C(F)(F)F)C1=O [A-486]	–	0	–	0	0	0	0	1	1	–
CCc1nn(CCCN2CCN(c3cccc(Cl)c3)CC2)c(=O)n1CCOc1ccccc1.Cl [NEFAZODONE HYDROCHLORIDE]	0	0	–	0	0	0	–	–	–	–
C[C@]1(O)C[C@@H](c2nc(-c3ccc4ccc(-c5ccccc5)nc4c3)c3c(N)nccn32)C1 [LINSITINIB]	–	1	–	1	–	1	0	–	1	–
